Assay results as given in ChEMBL document CHEMBL1201862, “PubChem BioAssay data set” (2004).
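Briefly, cells in 96-well plates were exposed to five compound concentrations for 48 h, and endpoints were estimated by linear interpolation. Here, GI50 denotes the concentration required for 50% inhibition of growth.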 The source made the active and inactive calls. No stated cut-off is given here; in the data, active = GI50 up to about 1.1 µM and inactive = higher.

Legend:
Assay in all cases: growth of human tumour cells (NCI), 48 h
HCT-116 = tested on: HCT-116
HOP-18 = tested on: HOP-18
COLO 205 = tested on: COLO 205
CCRF-CEM = tested on: CCRF-CEM
MOLT-4 = tested on: MOLT-4
EKVX = tested on: EKVX
SF-539 = tested on: SF-539
HOP-92 = tested on: HOP-92
M14 = tested on: M14
SK-MEL-28 = tested on: SK-MEL-28
DMS-114 = tested on: DMS-114
OVCAR-3 = tested on: OVCAR-3
LXFL 529 = tested on: LXFL 529
SF-295 = tested on: SF-295
UACC-257 = tested on: UACC-257
DMS-273 = tested on: DMS-273
UO-31 = tested on: UO-31
ACHN = tested on: ACHN
SK-OV-3 = tested on: SK-OV-3
SNB-75 = tested on: SNB-75
XF498 = tested on: XF498
HT-29 = tested on: HT-29
SNB-19 = tested on: SNB-19
NCI-H23 = tested on: NCI-H23
Malme-3M = tested on: Malme-3M
RPMI-8226 = tested on: RPMI-8226
HL-60 = tested on: HL-60
SF-268 = tested on: SF-268
OVCAR-4 = tested on: OVCAR-4
A549 = tested on: A549
IGROV-1 = tested on: IGROV-1
OVCAR-5 = tested on: OVCAR-5
NCI-H226 = tested on: NCI-H226
SNB-78 = tested on: SNB-78
K562 = tested on: K562
OVCAR-8 = tested on: OVCAR-8
786-0 = tested on: 786-0
U-251 = tested on: U-251
SN12C = tested on: SN12C
DLD-1 = tested on: DLD-1
RXF 393 = tested on: RXF 393
SK-MEL-5 = tested on: SK-MEL-5
NCI-H522 = tested on: NCI-H522
M19-MEL = tested on: M19-MEL
SR = tested on: SR
KM-20L2 = tested on: KM-20L2
SW-620 = tested on: SW-620
TK-10 = tested on: TK-10
KM12 = tested on: KM12
NCI-H460 = tested on: NCI-H460
SK-MEL-2 = tested on: SK-MEL-2
HCC 2998 = tested on: HCC 2998
HCT-15 = tested on: HCT-15

In the case of `[O-][S+](Cc1cnc2ccccc2c1)c1nc2ccccc2nc1-c1cccs1` (stereo not given), the GI50 (HCT-116) is reported as 10.6 µM (inactive), the GI50 (HOP-18) is reported as 17.5 µM (inactive) and the GI50 (COLO 205) is reported as 19.5 µM (inactive). For the same compound, the GI50 (CCRF-CEM) was 5.08 µM (inactive), the GI50 (MOLT-4) was 4.94 µM (inactive) and the GI50 (EKVX) was 6.31 µM (inactive). For the same compound, the GI50 (SF-539) was 17.9 µM (inactive), the GI50 (HOP-92) was 11.2 µM (inactive) and the GI50 (M14) was 15.1 µM (inactive). The GI50 (SK-MEL-28) was 16.9 µM (inactive), the GI50 (DMS-114) was 10.5 µM (inactive) and the GI50 (OVCAR-3) was 19.7 µM (inactive). For the same compound, the GI50 (LXFL 529) was 8.55 µM (inactive), the GI50 (SF-295) was 25.5 µM (inactive) and the GI50 (UACC-257) was 16 µM (inactive). For the same compound, the GI50 (DMS-273) was 13.7 µM (inactive), the GI50 (UO-31) was 14.8 µM (inactive) and the GI50 (ACHN) was 13.6 µM (inactive). For the same compound, the GI50 (SK-OV-3) was 29.2 µM (inactive), the GI50 (SNB-75) was 19.1 µM (inactive) and the GI50 (XF498) was 4.06 µM (inactive). For the same compound, the GI50 (HT-29) was 16.6 µM (inactive), the GI50 (SNB-19) was 22.4 µM (inactive) and the GI50 (NCI-H23) was 14.9 µM (inactive). For the same compound, the GI50 (Malme-3M) was 19.2 µM (inactive), the GI50 (RPMI-8226) was 25.4 µM (inactive) and the GI50 (HL-60) was 4.31 µM (inactive). For the same compound, the GI50 (SF-268) was 16.1 µM (inactive), the GI50 (OVCAR-4) was 10.5 µM (inactive) and the GI50 (A549) was 19.7 µM (inactive). The GI50 (IGROV-1) was 16.8 µM (inactive), the GI50 (OVCAR-5) was 13.5 µM (inactive) and the GI50 (NCI-H226) was 0.43 µM (active). For the same compound, the GI50 (SNB-78) was 20.3 µM (inactive), the GI50 (K562) was 7.46 µM (inactive) and the GI50 (OVCAR-8) was 17.5 µM (inactive). For the same compound, the GI50 (786-0) was 13.2 µM (inactive), the GI50 (U-251) was 18.7 µM (inactive) and the GI50 (SN12C) was 14.5 µM (inactive).
For `O=C(O)Cc1cc(=O)[nH]c2c1C(=O)CCC2`, the GI50 (DLD-1) was > 100 µM (inactive), the GI50 (HOP-18) was > 100 µM (inactive) and the GI50 (COLO 205) was > 100 µM (inactive). For the same compound, the GI50 (RXF 393) was > 100 µM (inactive), the GI50 (CCRF-CEM) was > 100 µM (inactive) and the GI50 (MOLT-4) was > 100 µM (inactive). The GI50 (EKVX) was > 100 µM (inactive), the GI50 (HOP-92) was > 100 µM (inactive) and the GI50 (M14) was > 100 µM (inactive). For the same compound, the GI50 (SK-MEL-28) was > 100 µM (inactive), the GI50 (SK-MEL-5) was > 100 µM (inactive) and the GI50 (NCI-H522) was > 100 µM (inactive). For the same compound, the GI50 (OVCAR-3) was > 100 µM (inactive), the GI50 (LXFL 529) was > 100 µM (inactive) and the GI50 (SF-295) was > 100 µM (inactive). For the same compound, the GI50 (UACC-257) was > 100 µM (inactive), the GI50 (DMS-273) was > 100 µM (inactive) and the GI50 (UO-31) was > 100 µM (inactive). The GI50 (ACHN) was > 100 µM (inactive), the GI50 (SK-OV-3) was > 100 µM (inactive) and the GI50 (XF498) was > 100 µM (inactive). For the same compound, the GI50 (HT-29) was > 100 µM (inactive), the GI50 (M19-MEL) was > 100 µM (inactive) and the GI50 (SNB-19) was > 100 µM (inactive). The GI50 (SR) was > 100 µM (inactive), the GI50 (KM-20L2) was > 100 µM (inactive) and the GI50 (SW-620) was > 100 µM (inactive). The GI50 (NCI-H23) was > 100 µM (inactive), the GI50 (Malme-3M) was > 100 µM (inactive) and the GI50 (RPMI-8226) was > 100 µM (inactive). The GI50 (HL-60) was > 100 µM (inactive), the GI50 (SF-268) was > 100 µM (inactive) and the GI50 (TK-10) was > 100 µM (inactive). For the same compound, the GI50 (KM12) was > 100 µM (inactive), the GI50 (NCI-H460) was > 100 µM (inactive) and the GI50 (SK-MEL-2) was > 100 µM (inactive). The GI50 (IGROV-1) was > 100 µM (inactive), the GI50 (OVCAR-5) was > 100 µM (inactive) and the GI50 (HCC 2998) was > 100 µM (inactive). For the same compound, the GI50 (NCI-H226) was > 100 µM (inactive), the GI50 (K562) was > 100 µM (inactive) and the GI50 (OVCAR-8) was > 100 µM (inactive). For the same compound, the GI50 (786-0) was > 100 µM (inactive), the GI50 (HCT-15) was > 100 µM and the GI50 (U-251) was > 100 µM (inactive). The GI50 (SN12C) was > 100 µM (inactive).
